Article PMC4498228, “Biotransformation of Endocrine-Disrupting Compounds in Groundwater: Bisphenol A, Nonylphenol, Ethynylestradiol and Triclosan by a Laccase Cocktail from Pycnoporus sanguineus CS43” (Water, Air, and Soil Pollution, 2015)
Read-outs that look alike come from different tables or passages of the source.

Test system: T1, laccase cocktail (LacI/LacII) from Pycnoporus sanguineus CS43
T1 construct: gene Lac I; native secreted enzymes
Assay: transformation rates at varied EDC concentration, Michaelis-Menten fit (HPLC-UV)
Format: biochemical, Trametes sanguinea
Conditions: free laccase cocktail (two isoforms), 100 U/L, pH 5 McIlvaine buffer, 25 °C, no mediator, read-out: Catalytic parameters / K m /
Source text: transformation rates at varied EDC concentration, Michaelis-Menten fit (HPLC-UV) on laccase cocktail (LacI/LacII) from Pycnoporus sanguineus CS43

SMILES | Km (called Kapp in the text) [µM] | Km (apparent Km) [µM]
CC(C)(c1ccc(O)cc1)c1ccc(O)cc1 [BPA, bisphenol A] | 482 | –
C#C[C@]1(O)CC[C@H]2[C@@H]3CCc4cc(O)ccc4[C@H]3CC[C@@]21C [EE2, 17-α-ethynylestradiol] | – | 32
CCCCCCCCCc1ccc(O)cc1 [NP, 4-nonylphenol] | – | 73.6
Oc1cc(Cl)ccc1Oc1ccc(Cl)cc1Cl [TCS, triclosan] | – | 302
